From ChEMBL document CHEMBL1201862, “PubChem BioAssay data set” (2004)
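Growth conditions: 96-well plates. Treatment: test compound, 48 hours, 5 concentrations. Analysis: linear interpolation between bracketing concentrations; unreached endpoints set to highest concentration. Here, GI50 denotes the concentration required for 50% inhibition of growth.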 Active and inactive are the calls of the source. Rule as the data show it: active = GI50 up to about 1.1 µM and inactive = higher.

Key:
Test in all cases: NCI tumour cell line growth inhibition, 48 h
786-0 = test system: 786-0
A549 = test system: A549
ACHN = test system: ACHN
CAKI-1 = test system: CAKI-1
CCRF-CEM = test system: CCRF-CEM
DLD-1 = test system: DLD-1
DMS-114 = test system: DMS-114
EKVX = test system: EKVX
HCC 2998 = test system: HCC 2998
HCT-116 = test system: HCT-116
HCT-15 = test system: HCT-15
HL-60 = test system: HL-60
HOP-18 = test system: HOP-18
HOP-62 = test system: HOP-62
HOP-92 = test system: HOP-92
HT-29 = test system: HT-29
IGROV-1 = test system: IGROV-1
K562 = test system: K562
KM12 = test system: KM12
LOX IMVI = test system: LOX IMVI
LXFL 529 = test system: LXFL 529
M14 = test system: M14
M19-MEL = test system: M19-MEL
MOLT-4 = test system: MOLT-4
Malme-3M = test system: Malme-3M
NCI-H226 = test system: NCI-H226
NCI-H23 = test system: NCI-H23
NCI-H460 = test system: NCI-H460
NCI-H522 = test system: NCI-H522
OVCAR-3 = test system: OVCAR-3
OVCAR-4 = test system: OVCAR-4
OVCAR-5 = test system: OVCAR-5
OVCAR-8 = test system: OVCAR-8
RPMI-8226 = test system: RPMI-8226
RXF 393 = test system: RXF 393
SF-268 = test system: SF-268
SF-295 = test system: SF-295
SF-539 = test system: SF-539
SK-MEL-28 = test system: SK-MEL-28
SK-MEL-2 = test system: SK-MEL-2
SK-MEL-5 = test system: SK-MEL-5
SK-OV-3 = test system: SK-OV-3
SN12C = test system: SN12C
SNB-19 = test system: SNB-19
SNB-78 = test system: SNB-78
SR = test system: SR
SW-620 = test system: SW-620
TK-10 = test system: TK-10
U-251 = test system: U-251
UACC-257 = test system: UACC-257
UACC-62 = test system: UACC-62
UO-31 = test system: UO-31
XF498 = test system: XF498
A498 = test system: A498
BT-549 = test system: BT-549
COLO 205 = test system: COLO 205
DMS-273 = test system: DMS-273
DU-145 = test system: DU-145
Hs-578T = test system: Hs-578T
KM-20L2 = test system: KM-20L2
MCF7 = test system: MCF7
MDA-MB-231 = test system: MDA-MB-231
MDA-MB-435 = test system: MDA-MB-435
MDA-N = test system: MDA-N
NCI/ADR-RES = test system: NCI/ADR-RES
PC-3 = test system: PC-3
SNB-75 = test system: SNB-75
T47D = test system: T47D

Q: With `O=C1OC(CC(=O)c2ccc(F)cc2)C(Cl)=C1Cl` (stereo not given) as the compound, how does the GI50 (786-0) read?
A: 18.5 µM (inactive)

Q: What about the GI50 (A549) of the same compound?
A: 40 µM (inactive)

Q: What about the GI50 (ACHN) of the same compound?
A: 34.4 µM (inactive)

Q: What about the GI50 (CAKI-1) of the same compound?
A: 39.4 µM (inactive)

Q: What about the GI50 (CCRF-CEM) of the same compound?
A: 29.4 µM (inactive)

Q: What about the GI50 (DLD-1) of the same compound?
A: 21.6 µM (inactive)

Q: And the GI50 (DMS-114)?
A: 40.3 µM (inactive)

Q: What about the GI50 (EKVX) of the same compound?
A: 48.4 µM (inactive)

Q: What about the GI50 (HCC 2998) of the same compound?
A: 16.5 µM (inactive)

Q: And the GI50 (HCT-116)?
A: 23.3 µM (inactive)

Q: What about the GI50 (HCT-15) of the same compound?
A: 18.4 µM

Q: And the GI50 (HL-60)?
A: 24.7 µM (inactive)

Q: What about the GI50 (HOP-18) of the same compound?
A: 17.9 µM (inactive)

Q: What about the GI50 (HOP-62) of the same compound?
A: 32.1 µM (inactive)

Q: And the GI50 (HOP-92)?
A: 20 µM (inactive)

Q: What about the GI50 (HT-29) of the same compound?
A: 18.2 µM (inactive)

Q: And the GI50 (IGROV-1)?
A: 27.2 µM (inactive)

Q: What about the GI50 (K562) of the same compound?
A: 33 µM (inactive)

Q: What about the GI50 (KM12) of the same compound?
A: 16.7 µM (inactive)

Q: And the GI50 (LOX IMVI)?
A: 16.8 µM (inactive)

Q: What about the GI50 (LXFL 529) of the same compound?
A: 18 µM (inactive)

Q: And the GI50 (M14)?
A: 22.9 µM (inactive)

Q: What about the GI50 (M19-MEL) of the same compound?
A: 73.3 µM (inactive)

Q: What about the GI50 (MOLT-4) of the same compound?
A: 29 µM (inactive)

Q: What about the GI50 (Malme-3M) of the same compound?
A: 17.2 µM (inactive)

Q: And the GI50 (NCI-H226)?
A: 18.5 µM (inactive)

Q: And the GI50 (NCI-H23)?
A: 29.6 µM (inactive)

Q: And the GI50 (NCI-H460)?
A: 21.5 µM (inactive)

Q: And the GI50 (NCI-H522)?
A: 18.9 µM (inactive)

Q: And the GI50 (OVCAR-3)?
A: 22.1 µM (inactive)

Q: And the GI50 (OVCAR-4)?
A: 19.6 µM (inactive)

Q: And the GI50 (OVCAR-5)?
A: 24.5 µM (inactive)

Q: What about the GI50 (OVCAR-8) of the same compound?
A: 19.4 µM (inactive)

Q: What about the GI50 (RPMI-8226) of the same compound?
A: 34.2 µM (inactive)

Q: And the GI50 (RXF 393)?
A: 21.6 µM (inactive)

Q: What about the GI50 (SF-268) of the same compound?
A: > 10 µM (inactive)

Q: And the GI50 (SF-295)?
A: > 100 µM (inactive)

Q: And the GI50 (SF-539)?
A: 19 µM (inactive)

Q: And the GI50 (SK-MEL-28)?
A: 43.3 µM (inactive)

Q: What about the GI50 (SK-MEL-2) of the same compound?
A: 22.4 µM (inactive)

Q: What about the GI50 (SK-MEL-5) of the same compound?
A: 25.5 µM (inactive)

Q: And the GI50 (SK-OV-3)?
A: 49 µM (inactive)

Q: And the GI50 (SN12C)?
A: 19.4 µM (inactive)

Q: What about the GI50 (SNB-19) of the same compound?
A: 22.3 µM (inactive)

Q: And the GI50 (SNB-78)?
A: 37.9 µM (inactive)

Q: What about the GI50 (SR) of the same compound?
A: 27.2 µM (inactive)

Q: And the GI50 (SW-620)?
A: 23.3 µM (inactive)

Q: What about the GI50 (TK-10) of the same compound?
A: 40.2 µM (inactive)

Q: What about the GI50 (U-251) of the same compound?
A: 20 µM (inactive)

Q: What about the GI50 (UACC-257) of the same compound?
A: 16.9 µM (inactive)

Q: What about the GI50 (UACC-62) of the same compound?
A: 17 µM (inactive)

Q: And the GI50 (UO-31)?
A: 22.3 µM (inactive)

Q: What about the GI50 (XF498) of the same compound?
A: 26.7 µM (inactive)

Q: How did the GI50 (786-0) turn out when `NC(=O)NO` [HYDROXYUREA] was run?
A: 303 µM (inactive)

Q: What about the GI50 (A498) of the same compound?
A: 693 µM (inactive)

Q: What about the GI50 (A549) of the same compound?
A: 514 µM (inactive)

Q: And the GI50 (ACHN)?
A: 108 µM (inactive)

Q: What about the GI50 (BT-549) of the same compound?
A: 1660 µM (inactive)

Q: And the GI50 (CAKI-1)?
A: 270 µM (inactive)

Q: And the GI50 (CCRF-CEM)?
A: 50.4 µM (inactive)

Q: And the GI50 (COLO 205)?
A: 1740 µM (inactive)

Q: And the GI50 (DLD-1)?
A: 1450 µM (inactive)

Q: What about the GI50 (DMS-273) of the same compound?
A: 137 µM (inactive)

Q: And the GI50 (DU-145)?
A: 818 µM (inactive)

Q: And the GI50 (EKVX)?
A: 1790 µM (inactive)

Q: And the GI50 (HCC 2998)?
A: 679 µM (inactive)

Q: What about the GI50 (HCT-116) of the same compound?
A: 995 µM (inactive)

Q: And the GI50 (HCT-15)?
A: 871 µM

Q: And the GI50 (HL-60)?
A: 18.4 µM (inactive)

Q: What about the GI50 (HOP-18) of the same compound?
A: 933 µM (inactive)

Q: What about the GI50 (HOP-62) of the same compound?
A: 904 µM (inactive)

Q: And the GI50 (HOP-92)?
A: 895 µM (inactive)

Q: And the GI50 (HT-29)?
A: 605 µM (inactive)

Q: What about the GI50 (Hs-578T) of the same compound?
A: 740 µM (inactive)

Q: What about the GI50 (IGROV-1) of the same compound?
A: 1110 µM (inactive)

Q: And the GI50 (K562)?
A: 877 µM (inactive)

Q: And the GI50 (KM-20L2)?
A: 436 µM (inactive)

Q: What about the GI50 (KM12) of the same compound?
A: 902 µM (inactive)

Q: And the GI50 (LOX IMVI)?
A: 700 µM (inactive)

Q: What about the GI50 (LXFL 529) of the same compound?
A: 713 µM (inactive)

Q: What about the GI50 (M14) of the same compound?
A: 597 µM (inactive)

Q: What about the GI50 (M19-MEL) of the same compound?
A: 1420 µM (inactive)

Q: What about the GI50 (MCF7) of the same compound?
A: 385 µM (inactive)

Q: And the GI50 (MDA-MB-231)?
A: > 1410 µM (inactive)

Q: And the GI50 (MDA-MB-435)?
A: 2000 µM (inactive)

Q: And the GI50 (MDA-N)?
A: 1940 µM (inactive)

Q: What about the GI50 (MOLT-4) of the same compound?
A: 222 µM (inactive)

Q: What about the GI50 (Malme-3M) of the same compound?
A: 1170 µM (inactive)

Q: And the GI50 (NCI-H226)?
A: 773 µM (inactive)

Q: What about the GI50 (NCI-H23) of the same compound?
A: 710 µM (inactive)

Q: And the GI50 (NCI-H460)?
A: 344 µM (inactive)

Q: And the GI50 (NCI-H522)?
A: 729 µM (inactive)

Q: What about the GI50 (NCI/ADR-RES) of the same compound?
A: 390 µM (inactive)

Q: What about the GI50 (OVCAR-3) of the same compound?
A: 1240 µM (inactive)

Q: What about the GI50 (OVCAR-4) of the same compound?
A: 1850 µM (inactive)

Q: What about the GI50 (OVCAR-5) of the same compound?
A: 601 µM (inactive)

Q: What about the GI50 (OVCAR-8) of the same compound?
A: 504 µM (inactive)

Q: What about the GI50 (PC-3) of the same compound?
A: 1010 µM (inactive)

Q: And the GI50 (RPMI-8226)?
A: 277 µM (inactive)

Q: What about the GI50 (RXF 393) of the same compound?
A: 857 µM (inactive)

Q: What about the GI50 (SF-268) of the same compound?
A: 524 µM (inactive)

Q: And the GI50 (SF-295)?
A: 313 µM (inactive)

Q: What about the GI50 (SF-539) of the same compound?
A: 315 µM (inactive)

Q: What about the GI50 (SK-MEL-28) of the same compound?
A: 1920 µM (inactive)

Q: And the GI50 (SK-MEL-2)?
A: 2000 µM (inactive)

Q: What about the GI50 (SK-MEL-5) of the same compound?
A: 507 µM (inactive)

Q: What about the GI50 (SK-OV-3) of the same compound?
A: 1680 µM (inactive)

Q: And the GI50 (SN12C)?
A: 738 µM (inactive)

Q: What about the GI50 (SNB-19) of the same compound?
A: 1580 µM (inactive)

Q: What about the GI50 (SNB-75) of the same compound?
A: 817 µM (inactive)

Q: And the GI50 (SNB-78)?
A: 2160 µM (inactive)

Q: And the GI50 (SR)?
A: 217 µM (inactive)

Q: What about the GI50 (SW-620) of the same compound?
A: 1090 µM (inactive)

Q: And the GI50 (T47D)?
A: 1490 µM (inactive)

Q: And the GI50 (TK-10)?
A: 1980 µM (inactive)

Q: And the GI50 (U-251)?
A: 581 µM (inactive)

Q: What about the GI50 (UACC-257) of the same compound?
A: 1810 µM (inactive)

Q: And the GI50 (UACC-62)?
A: 291 µM (inactive)

Q: What about the GI50 (UO-31) of the same compound?
A: 508 µM (inactive)

Q: And the GI50 (XF498)?
A: 820 µM (inactive)
